# According to ChEMBL document CHEMBL3885861, “Open TG-GATES”:
# Species on record: Rattus norvegicus
# Experiment: Open TG-GATES - Regimen: Daily Repeat
# Type: toxicity, organism-based, Sprague-Dawley
# Design: regimen Daily Repeat, gender Male, age 6 weeks
# Details: in vivo, po, route gavage; for Bas / Eos / Fbg / Lym / MCH / MCHC / MCV / Mono / Neu / PT / Plat / RBC / Ret / WBC: tissue Blood; for KIDNEY_L / KIDNEY_R / KIDNEY_TOTAL: tissue Kidney; for ALP / ALT / AST / BUN / CRE / DBIL / IP / K / LDH / Na / RALB / TBIL / TC / TG / TP / gamma-GTP / GLC: tissue Plasma
# [1] = 0 mg/kg, 72 h, dose level Control, time 3 day
# [2] = 0 mg/kg, […], dose level Control, time 7 day
# [3] = 0 mg/kg, […], dose level Control, time 14 day
# [4] = 0 mg/kg, […], dose level Control, time 28 day
# [5] = 3 mg/kg, 72 h, dose level Low, time 3 day
# [6] = 3 mg/kg, […], dose level Low, time 7 day
# [7] = 3 mg/kg, […], dose level Low, time 14 day
# [8] = 3 mg/kg, […], dose level Low, time 28 day
smiles,measurement,setting,value
Cc1cnc(NC(=O)C2=C(O)c3ccccc3S(=O)(=O)N2C)s1 [MELOXICAM],TERMINAL_BW,[1],245.1 g
same,Bas,[1],0.8%
same,Eos,[1],1.2%
same,Fbg,[1],223.6 mg/dL
same,Lym,[1],78.4%
same,MCH,[1],21.4 pg
same,MCHC,[1],34.2%
same,MCV,[1],62.4 fL
same,Mono,[1],2.8%
same,Neu,[1],17%
same,PT,[1],11.9 s
same,Plat,[1],120 x10_4/uL
same,RBC,[1],645.4 x10_4/ul
same,Ret,[1],5.5%
same,KIDNEY_L,[1],1 g
same,KIDNEY_R,[1],1 g
same,KIDNEY_TOTAL,[1],2 g
same,ALP,[1],947 IU/L
same,ALT,[1],42.2 IU/L
same,AST,[1],70.4 IU/L
same,BUN,[1],18 mg/dL
same,CRE,[1],0.4 mg/dL
same,DBIL,[1],0.1 mg/dL
same,IP,[1],7.7 mg/dL
same,K,[1],4.1 meq/L
same,LDH,[1],199.2 IU/L
same,Na,[1],141 meq/L
same,RALB,[1],3.5 g/dL
same,TBIL,[1],0.2 mg/dL
same,TC,[1],70.8 mg/dL
same,TG,[1],111.6 mg/dL
same,TP,[1],5.6 g/dL
same,gamma-GTP,[1],1 IU/L
same,TERMINAL_BW,[2],281.9 g
same,TERMINAL_BW,[3],300.3 g
same,TERMINAL_BW,[4],396.9 g
same,Bas,[2],0.8%
same,Eos,[2],1%
same,Fbg,[2],216.6 mg/dL
same,Lym,[2],78.4%
same,MCH,[2],21.4 pg
same,MCHC,[2],34.9%
same,MCV,[2],61.4 fL
same,Mono,[2],2.4%
same,Neu,[2],16.6%
same,PT,[2],11.9 s
same,Plat,[2],139.5 x10_4/uL
same,RBC,[2],655.6 x10_4/ul
same,Ret,[2],5.1%
same,Bas,[3],1%
same,Eos,[3],0.8%
same,Fbg,[3],226.8 mg/dL
same,Lym,[3],78.4%
same,MCH,[3],20.1 pg
same,MCHC,[3],34%
same,MCV,[3],59.1 fL
same,Mono,[3],2.8%
same,Neu,[3],16.8%
same,PT,[3],11.6 s
same,Plat,[3],111.1 x10_4/uL
same,RBC,[3],734.2 x10_4/ul
same,Ret,[3],3.2%
same,Bas,[4],1%
same,Eos,[4],1%
same,Fbg,[4],207.2 mg/dL
same,Lym,[4],87%
same,MCH,[4],19.3 pg
same,MCHC,[4],34.4%
same,MCV,[4],56.1 fL
same,Mono,[4],1.5%
same,Neu,[4],9%
same,PT,[4],11.6 s
same,RBC,[4],768.2 x10_4/ul
same,Ret,[4],2.4%
same,WBC,[4],144.5 x10_2/uL
same,KIDNEY_L,[2],1.2 g
same,KIDNEY_R,[2],1.1 g
same,KIDNEY_TOTAL,[2],2.3 g
same,KIDNEY_L,[3],1.2 g
same,KIDNEY_R,[3],1.2 g
same,KIDNEY_TOTAL,[3],2.4 g
same,KIDNEY_L,[4],1.4 g
same,KIDNEY_R,[4],1.3 g
same,KIDNEY_TOTAL,[4],2.7 g
same,ALP,[2],892.2 IU/L
same,ALT,[2],33.8 IU/L
same,AST,[2],68.2 IU/L
same,BUN,[2],15.8 mg/dL
same,CRE,[2],0.4 mg/dL
same,DBIL,[2],0.082 mg/dL
same,GLC,[2],214.8 mg/dL
same,IP,[2],7.3 mg/dL
same,K,[2],3.8 meq/L
same,LDH,[2],190.6 IU/L
same,Na,[2],142 meq/L
same,RALB,[2],3.3 g/dL
same,TBIL,[2],0.1 mg/dL
same,TC,[2],67.2 mg/dL
same,TG,[2],110.2 mg/dL
same,TP,[2],5.7 g/dL
same,gamma-GTP,[2],1.2 IU/L
same,ALP,[3],880.6 IU/L
same,ALT,[3],36.6 IU/L
same,AST,[3],69.6 IU/L
same,BUN,[3],16.4 mg/dL
same,CRE,[3],0.4 mg/dL
same,DBIL,[3],0.094 mg/dL
same,IP,[3],6.9 mg/dL
same,K,[3],4 meq/L
same,LDH,[3],178.6 IU/L
same,Na,[3],142 meq/L
same,RALB,[3],3.6 g/dL
same,TBIL,[3],0.2 mg/dL
same,TC,[3],69 mg/dL
same,TG,[3],113.2 mg/dL
same,TP,[3],6.1 g/dL
same,gamma-GTP,[3],1 IU/L
same,ALP,[4],523.8 IU/L
same,ALT,[4],32 IU/L
same,AST,[4],65.8 IU/L
same,BUN,[4],18.2 mg/dL
same,CRE,[4],0.5 mg/dL
same,DBIL,[4],0.1 mg/dL
same,GLC,[4],239.5 mg/dL
same,IP,[4],6.9 mg/dL
same,K,[4],4.1 meq/L
same,LDH,[4],187.8 IU/L
same,Na,[4],140.8 meq/L
same,RALB,[4],3.5 g/dL
same,TBIL,[4],0.2 mg/dL
same,TC,[4],69 mg/dL
same,TG,[4],141.2 mg/dL
same,TP,[4],5.9 g/dL
same,gamma-GTP,[4],0.5 IU/L
same,TERMINAL_BW,[5],246.9 g
same,Bas,[5],0.8%
same,Eos,[5],0.8%
same,Fbg,[5],225.2 mg/dL
same,Lym,[5],83%
same,MCH,[5],21.6 pg
same,MCHC,[5],34.6%
same,MCV,[5],62.5 fL
same,Mono,[5],2.2%
same,Neu,[5],13%
same,PT,[5],11.8 s
same,Plat,[5],121.1 x10_4/uL
same,RBC,[5],639.2 x10_4/ul
same,Ret,[5],5.7%
same,KIDNEY_L,[5],1.1 g
same,KIDNEY_R,[5],1.1 g
same,KIDNEY_TOTAL,[5],2.2 g
same,ALP,[5],950.2 IU/L
same,ALT,[5],35.6 IU/L
same,AST,[5],62.4 IU/L
same,BUN,[5],15.2 mg/dL
same,CRE,[5],0.4 mg/dL
same,DBIL,[5],0.1 mg/dL
same,IP,[5],7.6 mg/dL
same,K,[5],4.1 meq/L
same,LDH,[5],195.6 IU/L
same,Na,[5],141 meq/L
same,RALB,[5],3.5 g/dL
same,TBIL,[5],0.2 mg/dL
same,TC,[5],69.8 mg/dL
same,TG,[5],140.8 mg/dL
same,TP,[5],5.6 g/dL
same,gamma-GTP,[5],0.8 IU/L
same,TERMINAL_BW,[6],277.7 g
same,TERMINAL_BW,[7],332.6 g
same,TERMINAL_BW,[8],420.4 g
same,Bas,[6],1%
same,Eos,[6],1%
same,Fbg,[6],226.4 mg/dL
same,Lym,[6],81.6%
same,MCH,[6],21.9 pg
same,MCHC,[6],34.7%
same,MCV,[6],63.3 fL
same,Mono,[6],2.4%
same,Neu,[6],14.6%
same,PT,[6],11.9 s
same,Plat,[6],124.9 x10_4/uL
same,RBC,[6],637.8 x10_4/ul
same,Ret,[6],5.5%
same,WBC,[6],129.6 x10_2/uL
same,Bas,[7],1%
same,Eos,[7],1%
same,Fbg,[7],222.4 mg/dL
same,Lym,[7],80%
same,MCH,[7],20.4 pg
same,MCHC,[7],33.6%
same,MCV,[7],60.7 fL
same,Mono,[7],2.6%
same,Neu,[7],15.2%
same,PT,[7],11.6 s
same,Plat,[7],118.9 x10_4/uL
same,RBC,[7],689.2 x10_4/ul
same,Ret,[7],4.1%
same,WBC,[7],124.4 x10_2/uL
same,Bas,[8],1%
same,Eos,[8],1%
same,Fbg,[8],213.8 mg/dL
same,Lym,[8],81.2%
same,MCH,[8],18.9 pg
same,MCHC,[8],34.2%
same,MCV,[8],55.2 fL
same,Mono,[8],2.2%
same,Neu,[8],13.4%
same,PT,[8],11.7 s
same,Plat,[8],115.1 x10_4/uL
same,RBC,[8],790 x10_4/ul
same,Ret,[8],2.5%
same,WBC,[8],131 x10_2/uL
same,KIDNEY_L,[6],1.3 g
same,KIDNEY_R,[6],1.2 g
same,KIDNEY_TOTAL,[6],2.5 g
same,KIDNEY_L,[7],1.4 g
same,KIDNEY_R,[7],1.3 g
same,KIDNEY_TOTAL,[7],2.7 g
same,KIDNEY_L,[8],1.5 g
same,KIDNEY_R,[8],1.5 g
same,KIDNEY_TOTAL,[8],3 g
same,ALP,[6],971.8 IU/L
same,ALT,[6],37 IU/L
same,AST,[6],68.4 IU/L
same,BUN,[6],15.2 mg/dL
same,CRE,[6],0.4 mg/dL
same,DBIL,[6],0.098 mg/dL
same,IP,[6],7.4 mg/dL
same,K,[6],4.1 meq/L
same,LDH,[6],186.8 IU/L
same,Na,[6],141.8 meq/L
same,RALB,[6],3.4 g/dL
same,TBIL,[6],0.2 mg/dL
same,TC,[6],72.6 mg/dL
same,TG,[6],128.8 mg/dL
same,TP,[6],5.7 g/dL
same,gamma-GTP,[6],1.2 IU/L
same,ALP,[7],820.8 IU/L
same,AST,[7],75.2 IU/L
same,BUN,[7],17 mg/dL
same,CRE,[7],0.5 mg/dL
same,DBIL,[7],0.1 mg/dL
same,GLC,[7],214.6 mg/dL
same,IP,[7],7.4 mg/dL
same,K,[7],4 meq/L
same,LDH,[7],223.6 IU/L
same,Na,[7],141.4 meq/L
same,RALB,[7],3.5 g/dL
same,TBIL,[7],0.2 mg/dL
same,TC,[7],72.6 mg/dL
same,TG,[7],141.8 mg/dL
same,TP,[7],5.9 g/dL
same,gamma-GTP,[7],1 IU/L
